Data reported in BindingDB's records for doi:10.1016/j.bioorg.2015.02.005 (North-West University, 2015).
Several values for one entry are separate records, joined by “and”; a condition that tells them apart may be missing. Identical values can stand only once. Blank lines part the entries; values can stand above or below the molecule they belong to.

Experiments:
Adenosine receptor A1 = target: T1, Adenosine receptor A1 (Rattus norvegicus, UniProt P25099); assay: Radioligand Binding Assays
T1 sequence (P25099 whole entry): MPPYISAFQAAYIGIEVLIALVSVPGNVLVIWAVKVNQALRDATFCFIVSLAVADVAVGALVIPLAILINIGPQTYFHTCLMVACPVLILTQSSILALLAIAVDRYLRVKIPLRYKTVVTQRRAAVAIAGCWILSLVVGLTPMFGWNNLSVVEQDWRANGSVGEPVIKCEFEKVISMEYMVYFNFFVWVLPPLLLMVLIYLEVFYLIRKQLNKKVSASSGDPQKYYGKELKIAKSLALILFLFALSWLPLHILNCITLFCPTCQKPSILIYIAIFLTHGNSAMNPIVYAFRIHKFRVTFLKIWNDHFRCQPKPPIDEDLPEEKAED
Description: (§1) For the A2a receptor binding study, the incubation contained 10 mg of the original tissue weight of the striatal membranes, 4 nM [3H]NECA, 50 nM CPA, 10 mM MgCl2, 0.2 units/mL adenosine deaminase, the test compound and 1% DMSO. For the A1 receptor binding study, the incubations contained 5 mg of the original tissue weight of the whole brain membranes, 0.1 nM [3H]DPCPX, 0.2 units/mL adenosine deaminase, the test compound and 1% DMSO. The incubations were vortexed and incubated for 60 min at 25 °C in a shaking waterbath. Half an hour after incubation was started, the incubations were vortexed again. The incubations were terminated via filtration. The tubes were washed twice with 4 mL ice-cold Tris buffer and the filters were washed once more with 4mL ice-cold Tris buffer. The damp filters were place in scintillation vials and 4 mL of scintillation fluid was added. The vials were shaken and incubated for two hours before being counted.

Adenosine receptor A2a = Adenosine receptor A2a (Rattus norvegicus, UniProt P30543); assay: Radioligand Binding Assays
Chain of Adenosine receptor A2a (P30543 whole entry): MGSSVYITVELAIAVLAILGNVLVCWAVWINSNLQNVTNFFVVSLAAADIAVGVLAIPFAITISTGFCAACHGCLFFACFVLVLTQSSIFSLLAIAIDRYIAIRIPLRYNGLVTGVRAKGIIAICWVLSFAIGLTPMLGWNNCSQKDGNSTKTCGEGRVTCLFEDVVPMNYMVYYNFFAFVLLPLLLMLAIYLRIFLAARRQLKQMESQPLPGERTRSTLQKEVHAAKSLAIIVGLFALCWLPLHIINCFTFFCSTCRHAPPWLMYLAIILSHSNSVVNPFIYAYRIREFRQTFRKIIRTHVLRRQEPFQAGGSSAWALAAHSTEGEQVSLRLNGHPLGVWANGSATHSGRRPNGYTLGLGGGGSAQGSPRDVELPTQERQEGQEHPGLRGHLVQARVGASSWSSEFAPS
Description: as §1

[1] = target: T2, Amine oxidase [flavin-containing] B (Homo sapiens, UniProt P27338); assay: MAO Inhibition Assays; details: pH 7.4
T2 sequence (P27338 whole entry): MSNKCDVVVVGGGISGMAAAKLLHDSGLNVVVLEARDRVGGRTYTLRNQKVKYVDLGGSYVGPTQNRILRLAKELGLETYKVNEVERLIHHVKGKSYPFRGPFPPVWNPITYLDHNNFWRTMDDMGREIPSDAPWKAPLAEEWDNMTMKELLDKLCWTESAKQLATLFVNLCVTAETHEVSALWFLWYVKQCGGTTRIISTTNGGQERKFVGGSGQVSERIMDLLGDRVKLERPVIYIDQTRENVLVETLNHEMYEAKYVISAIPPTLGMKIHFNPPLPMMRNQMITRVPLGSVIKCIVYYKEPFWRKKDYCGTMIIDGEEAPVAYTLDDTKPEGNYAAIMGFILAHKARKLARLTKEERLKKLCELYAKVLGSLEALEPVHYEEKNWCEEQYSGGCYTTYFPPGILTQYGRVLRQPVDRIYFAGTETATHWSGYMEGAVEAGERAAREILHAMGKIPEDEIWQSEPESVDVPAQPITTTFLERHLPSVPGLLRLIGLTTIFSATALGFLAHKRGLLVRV
Description: The enzymatic reactions were carried out at pH 7.4 (K2HPO4/KH2PO4 100 mM, made isotonic with KCl) to a final volume of 500 µL. The reactions contained the different inhibitor concentrations spanning at least 3 orders of magnitude and the MAO-A/B mixed substrate kynuramine (45 µM for MAO-A and 30 µM for MAO-B). DMSO, as co-solvent (4%) was added to each reaction. The enzyme reactions were initiated with the addition of MAO-A or MAO-B (0.0075 mg protein/mL) and incubated for 20 min at 37 °C in a waterbath. After termination with the additionof 400 µL NaOH (2 N) and 1000 µL water, the concentrations of the MAO generated 4-hydroxyquinoline were measured by fluorescence spectrophotometry (excitation = […]; emission = […]).

SMILES: O=C1NC(=O)c2cc(SCc3ccc(Br)cc3)ccc21
Ki (Adenosine receptor A1): 676 nM

SMILES: O=C1Nc2ccc(OCc3ccccc3)cc2C1=O [5-Benzyloxyisatin]
Ki (Adenosine receptor A1): 9790 nM

SMILES: O=C1NC(=O)c2cc(SCCc3ccccc3)ccc21
Ki (Adenosine receptor A1): 1880 nM and 649 nM
Ki (Adenosine receptor A2a): 17000 nM
IC50 [1]: 3900 nM

Now from value to molecule:

Ki (Adenosine receptor A1): 36700 nM and 6300 nM
Ki (Adenosine receptor A2a): 12700 nM
SMILES: O=C1NC(=O)c2cc(SCc3ccc(F)cc3)ccc21

Ki (Adenosine receptor A1): 595 nM and 548 nM
Ki (Adenosine receptor A2a): 980 nM
SMILES: O=C1NC(=O)c2cc(SCc3ccccc3)ccc21

Ki (Adenosine receptor A1): 369 nM and 1730 nM
SMILES: COc1ccc(CSc2ccc3c(c2)C(=O)NC3=O)cc1

Ki (Adenosine receptor A1): 4670 nM
SMILES: O=C1NC(=O)c2cc(OCc3ccccc3)ccc21

IC50 [1]: 460 nM
SMILES: O=C1NC(=O)c2cc(SCc3ccc(Cl)cc3)ccc21
